Active and inactive are the calls of the source. No cut-off for these calls is given here.
How the values were obtained:
[1] = target: Heat shock protein HSP90 (Homo sapiens) (UniProt P07900+P08238); assay: Binding affinity to human recombinant Hsp90 by fluorescence polarization assay; format: protein assay
[2] = Binding affinity to human recombinant Hsp70 after 24 hrs by fluorescence polarization assay
Homo sapiens [3] = organism: Homo sapiens; assay: Binding affinity to human Hsp70 assessed as activation of single-turnover ATPase activity at 8 uM
Homo sapiens [4] = organism: Homo sapiens; assay: Decrease in binding affinity to human recombinant Hsp70 at 5 nM by fluorescence polarization assay in presence of ATP
[5] = Binding affinity to Escherichia coli Hsp70 by fluorescence polarization assay

Row | Activity [1] | Kd [2] [nM] | Activity (Homo sapiens [3]) | Activity (Homo sapiens [4]) | SMILES | Kd [5] [nM]
1 | inactive | 426 | Dose-dependent effect | Active | CC(C)C[C@H](NC(=O)[C@H](C)NC(=O)CCCCCNC(=S)Nc1ccc(-c2c3ccc(=O)cc-3oc3cc(O)ccc23)c(C(=O)O)c1)C(=O)N[C@@H](CC(C)C)C(=O)N[C@@H](CC(C)C)C(=O)N[C@@H](CO)C(=O)N[C@@H](C)C(=O)N1CCC[C@H]1C(=O)N[C@@H](CCCNC(=N)N)C(=O)N[C@@H](CCCNC(=N)N)C(=O)O | –
2 | – | – | – | – | CC(C)C[C@H](NC(=O)[C@H](C)N)C(=O)N[C@@H](CC(C)C)C(=O)N[C@@H](CC(C)C)C(=O)N[C@@H](CO)C(=O)N[C@@H](C)C(=O)N1CCC[C@H]1C(=O)N[C@@H](CCCNC(=N)N)C(=O)N[C@@H](CCCNC(=N)N)C(=O)O | 400
